In patent publication US20250197409A1, “BIFUNCTIONAL COMPOUND AND PHARMACEUTICAL COMPOSITION COMPRISING THE BIFUNCTIONAL COMPOUND, AND METHOD FOR TREATING ANDROGEN RECEPTOR RELATED DISEASE BY USING THE SAME” (ANHORN MEDICINES CO., LTD., priority 2022, published 2025):
Read-outs that look alike come from different tables or passages of the source.

Biological target: T1, androgen receptor (Homo sapiens, UniProt P10275, T878A)
T1 construct: host or cells: LNCaP.FGC
Assay: Androgen receptor degradation assay using Western blot analysis
Type: cell-based
Protocol: Cells not treated with any of the above-mentioned compounds are used as a negative control.
The internal loading control GAPDH was detected using a mouse monoclonal antibody (1:5000) (GTX627408, GeneTex International Corp., HsinChu City, Taiwan R.O.C.) and a goat anti-mouse HRP-conjugated secondary antibody (1:5000 dilution) (C04001, Croyez Bioscience Co., Ltd., Taipei City, Taiwan R.O.C.).
AR remaining percentage was determined by the intensity difference of AR signals (each was normalized by the corresponding internal loading control GAPDH) between the protein samples from the untreated cells (100%) and those from the treated cells. “Cpd. #” indicates the compound number hereinabove.
In addition, several compounds were selected to prepare a treatment stock solutions at 100 nM in RPMI medium. The treatment stock solutions were separately serially diluted (10×) with RPMI medium for treating LNCaP.FGC cells seeded with 2×10^5 cells per well in 24-well tissue culture plates. A calibration curve was determined by the serial diluted samples for each compound, and the concentration needed for 50% AR degradation (AR DC50) for each compound was calculated.

[1] = 24 h, read-out: Androgen Receptor Remaining (%), LNCaP.FGC cells, 100 nM, 24 hr, normalized to GAPDH, untreated cells = 100%
[2] = read-out: AR DC50 (concentration needed for 50% AR degradation); LNCaP.FGC cells, serial 10x dilutions from 100 nM
[3] = 24 h, LNCaP.FGC cells, 100 nM, 24 hr, normalized to GAPDH, untreated cells = 100%; read-out: Androgen Receptor Remaining (%)
[4] = LNCaP.FGC cells, serial 10x dilutions from 100 nM; read-out: AR DC50 (concentration needed for 50% AR degradation)

T1 sequence (P10275 whole entry T878A): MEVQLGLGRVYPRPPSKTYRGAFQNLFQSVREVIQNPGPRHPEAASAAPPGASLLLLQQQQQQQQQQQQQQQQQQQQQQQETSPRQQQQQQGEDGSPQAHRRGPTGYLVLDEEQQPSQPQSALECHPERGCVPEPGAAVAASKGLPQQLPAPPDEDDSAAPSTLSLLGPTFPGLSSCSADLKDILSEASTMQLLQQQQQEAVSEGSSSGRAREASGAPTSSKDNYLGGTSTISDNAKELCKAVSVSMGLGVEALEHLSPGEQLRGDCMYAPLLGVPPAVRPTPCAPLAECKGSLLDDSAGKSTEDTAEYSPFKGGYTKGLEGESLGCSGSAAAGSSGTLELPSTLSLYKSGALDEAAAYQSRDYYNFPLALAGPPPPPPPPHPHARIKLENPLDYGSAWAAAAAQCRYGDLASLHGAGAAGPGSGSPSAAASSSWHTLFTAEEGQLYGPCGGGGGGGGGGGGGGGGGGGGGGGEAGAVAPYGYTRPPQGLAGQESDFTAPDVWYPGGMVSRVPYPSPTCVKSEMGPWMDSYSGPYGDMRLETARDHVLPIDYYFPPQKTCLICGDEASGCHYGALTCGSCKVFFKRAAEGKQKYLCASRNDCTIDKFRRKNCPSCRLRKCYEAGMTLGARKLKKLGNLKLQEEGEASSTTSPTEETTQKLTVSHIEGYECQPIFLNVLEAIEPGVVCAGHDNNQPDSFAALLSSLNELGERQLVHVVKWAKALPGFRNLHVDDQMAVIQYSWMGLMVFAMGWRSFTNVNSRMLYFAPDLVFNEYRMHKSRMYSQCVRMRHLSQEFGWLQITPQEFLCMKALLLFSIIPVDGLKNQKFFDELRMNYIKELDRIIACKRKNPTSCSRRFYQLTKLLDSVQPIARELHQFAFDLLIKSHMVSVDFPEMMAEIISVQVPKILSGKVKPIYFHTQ
T1 sequence (Q96SW2 whole entry partner): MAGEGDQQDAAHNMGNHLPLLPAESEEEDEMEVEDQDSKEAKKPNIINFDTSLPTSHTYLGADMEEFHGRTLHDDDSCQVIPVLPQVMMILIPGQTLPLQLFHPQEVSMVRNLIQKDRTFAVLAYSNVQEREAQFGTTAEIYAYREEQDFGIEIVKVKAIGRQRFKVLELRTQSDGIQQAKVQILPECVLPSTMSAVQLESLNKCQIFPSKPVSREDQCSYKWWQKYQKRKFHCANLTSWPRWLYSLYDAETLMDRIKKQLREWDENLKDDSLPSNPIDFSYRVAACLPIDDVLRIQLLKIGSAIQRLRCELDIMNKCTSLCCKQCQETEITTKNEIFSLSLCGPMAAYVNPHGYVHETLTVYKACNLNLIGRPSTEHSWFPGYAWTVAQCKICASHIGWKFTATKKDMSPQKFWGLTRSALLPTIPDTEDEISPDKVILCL

| Compound | remaining activity at 0.1 µM [1] [%] | DC50 [2] [nM] | further results |
| --- | --- | --- | --- |
| N#Cc1ccc(O[C@H]2CC[C@H](NC(=O)c3ccc(N4CCN(CCCOc5ccc6c7c(n(CC(F)F)c6c5)C(=O)N(C5CCC(=O)NC5=O)C7=O)CC4)nn3)CC2)cc1Cl (stereo partly shown) [Compound 82] | 35 | 25 to 100 |  |
| CCn1c2c(c3ccc(OCCCN4CC=C(c5ccc(C(=O)N[C@H]6CC[C@H](N(C)c7ccc(C#N)c(Cl)c7)CC6)nn5)CC4)cc31)C(=O)N(C1CCC(=O)NC1=O)C2=O (stereo partly shown) [Compound 201] |  | 10 to 25 |  |
| Cn1c2c(c3ccc(NC(=O)CN4CCN(c5ccc(C(=O)N[C@H]6CC[C@H](Oc7ccc(C#N)c(Cl)c7)CC6)cn5)CC4)cc31)C(=O)N(C1CCC(=O)NC1=O)C2=O (stereo partly shown) [Compound 66] |  |  | remaining activity at 0.1 µM [3]: 100% |
| Cn1c2c(c3cccc(OCCCN4CCN(c5ccc(C(=O)N[C@H]6C(C)(C)[C@H](Oc7ccc(C#N)c(Cl)c7)C6(C)C)cn5)CC4)c31)C(=O)N(C1CCC(=O)NC1=O)C2=O (stereo partly shown) [Compound 24] |  |  | remaining activity at 0.1 µM [3]: 62% |
| CCn1c2c(c3ccc(OCCN4CCC5(CC4)CN(c4ccc(C(=O)N[C@H]6C(C)(C)[C@H](Oc7ccc(C#N)c(Cl)c7)C6(C)C)nn4)C5)cc31)C(=O)N(C1CCC(=O)NC1=O)C2=O (stereo partly shown) [Compound 51] | 20 | 25 to 100 |  |
| CN(c1ccc(C#N)c(Cl)c1)[C@H]1CC[C@H](NC(=O)c2ccc(N3CCN(CCCOc4ccc5c6c(n(CC(F)F)c5c4)C(=O)N(C4CCC(=O)NC4=O)C6=O)CC3)nn2)CC1 (stereo partly shown) [Compound 83] | 41 | 10 to 25 |  |
| CCn1c2c(c3ccc(OCCOCCN4CCN(c5ccc(C(=O)N[C@H]6CC[C@H](Oc7ccc(C#N)c(Cl)c7)CC6)nn5)CC4)cc31)C(=O)N(C1CCC(=O)NC1=O)C2=O (stereo partly shown) [Compound 115] |  | 25 to 100 | Androgen Receptor Remaining (%) (LNCaP.FGC cells, 100 nM, 24 hr, normalized to GAPDH, untreated cells = 100%): 26% |
| CCn1c2c(c3ccc(OCCN4CCN(c5ccc(C(=O)N[C@H]6CC[C@H](Oc7ccc(C#N)c(Cl)c7)CC6)cc5)CC4)cc31)C(=O)N(C1CCC(=O)NC1=O)C2=O (stereo partly shown) [Compound 32] | 59 |  |  |
| N#Cc1ccc(O[C@H]2CC[C@H](NC(=O)c3ccc(N4CCN(CCCOc5ccc6c7c(n(CO)c6c5)C(=O)N(C5CCC(=O)NC5=O)C7=O)CC4)nn3)CC2)cc1Cl (stereo partly shown) [Compound 85] | 20 | 25 to 100 |  |
| Cn1c2c(c3ccc(OCCOC4CC5(CCN(c6ccc(C(=O)N[C@H]7CC[C@H](Oc8ccc(C#N)c(Cl)c8)CC7)nn6)C5)C4)cc31)C(=O)N(C1CCC(=O)NC1=O)C2=O (stereo partly shown) [Compound 174] |  |  | DC50 [4]: 25 to 100 nM |
| CCn1c2c(c3ccc(OCC(=O)N4CCC5(CCN(c6ccc(C(=O)N[C@H]7CC[C@H](Oc8ccc(C#N)c(Cl)c8)CC7)nn6)C5)C4)cc31)C(=O)N(C1CCC(=O)NC1=O)C2=O (stereo partly shown) [Compound 136] | 17 | 25 to 100 |  |
| CCn1c2c(c3ccc(OC(C)CCN4CCC(c5ccc(C(=O)N[C@H]6CC[C@H](Oc7ccc(C#N)c(Cl)c7)CC6)nn5)CC4)cc31)C(=O)N(C1CCC(=O)NC1=O)C2=O (stereo partly shown) [Compound 211] |  | < 10 |  |
| CCn1c2c(c3ccc(OCC(C)CN4CCN(c5ccc(C(=O)N[C@H]6CC[C@H](N(C)c7ccc(C#N)c(Cl)c7)CC6)nn5)CC4)cc31)C(=O)N(C1CCC(=O)NC1=O)C2=O (stereo partly shown) [Compound 193] |  | 25 to 100 |  |
| CCn1c2c(c3ccc(OCCCN4C5CCC4CN(c4ccc(C(=O)N[C@H]6CC[C@H](Oc7ccc(C#N)c(Cl)c7)CC6)nn4)C5)cc31)C(=O)N(C1CCC(=O)NC1=O)C2=O (stereo partly shown) [Compound 47] | 19 | 10 to 25 |  |
| CCn1c2c(c3ccc(OCCCCN4CCN(c5ccc(C(=O)N[C@H]6CC[C@H](N(C)c7ccc(C#N)c(Cl)c7)CC6)nn5)CC4=O)cc31)C(=O)N(C1CCC(=O)NC1=O)C2=O (stereo partly shown) [Compound 150] | 40 |  |  |
| CCn1c2c(c3ccc(OCCCCN4CCCN(c5ccc(C(=O)N[C@H]6CC[C@H](Oc7ccc(C#N)c(Cl)c7)CC6)nn5)CC4)cc31)C(=O)N(C1CCC(=O)NC1=O)C2=O (stereo partly shown) [Compound 90] | 28 | 25 to 100 |  |
| Cn1c2c(c3ccc(NC(=O)CN4CCC5(CC4)CN(c4ccc(C(=O)N[C@H]6C(C)(C)[C@H](Oc7ccc(C#N)c(Cl)c7)C6(C)C)nn4)C5)cc31)C(=O)N(C1CCC(=O)NC1=O)C2=O (stereo partly shown) [Compound 69] |  |  | remaining activity at 0.1 µM [3]: 51% |
| CCn1c2c(c3ccc(OCCCC4CCN(c5ccc(C(=O)N[C@H]6CC[C@H](Oc7ccc(C#N)c(Cl)c7)CC6)nn5)CC4)cc31)C(=O)N(C1CCC(=O)NC1=O)C2=O (stereo partly shown) [Compound 163] | 41 |  |  |
| CCn1c2c(c3ccc(OCCCOC4CC5(CCN(c6ccc(C(=O)N[C@H]7CC[C@H](Oc8ccc(C#N)c(Cl)c8)CC7)nn6)CC5)C4)cc31)C(=O)N(C1CCC(=O)NC1=O)C2=O (stereo partly shown) [Compound 172] |  | 25 to 100 |  |

| Compound | remaining activity at 0.1 µM [1] [%] | DC50 [2] [nM] | further results |
| --- | --- | --- | --- |
| CCn1c2c(c3ccc(OCCCN4CCN(c5ccc(C(=O)N[C@H]6CC[C@H](Oc7ccc(C#N)c(Cl)c7)CC6)nn5)[C@@H](C)C4)cc31)C(=O)N(C1CCC(=O)NC1=O)C2=O (stereo partly shown) [Compound 65] | 32 | 25 to 100 |  |
| Cn1c2c(c3ccc(NC(=O)CN4CCN(c5ccc(C(=O)N[C@H]6C(C)(C)[C@H](Oc7ccc(C#N)c(Cl)c7)C6(C)C)nn5)CC4)cc31)C(=O)N(C1CCC(=O)NC1=O)C2=O (stereo partly shown) [Compound 50] |  |  | remaining activity at 0.1 µM [3]: 45%; DC50 [4]: 25 to 100 nM |
| CCn1c2c(c3ccc(OCCOCC4CCN(c5ccc(C(=O)N[C@H]6CC[C@H](N(C)c7ccc(C#N)c(Cl)c7)CC6)nn5)CC4)cc31)C(=O)N(C1CCC(=O)NC1=O)C2=O (stereo partly shown) [Compound 137] | 1 | 25 to 100 |  |
| CCn1c2c(c3ccc(OCCCN4CCC5(CC4)CN(c4ccc(C(=O)N[C@H]6CC[C@H](Oc7ccc(C#N)c(Cl)c7)CC6)nn4)C5)cc31)C(=O)N(C1CCC(=O)NC1=O)C2=O (stereo partly shown) [Compound 48] | 20 | < 10 |  |
| CCn1c2c(c3ccc(OCCCCN4CCN(c5ccc(C(=O)N[C@H]6CC[C@H](N(C)c7ccc(C#N)c(Cl)c7)CC6)nn5)CC4)cc31)C(=O)N(C1CCC(=O)NC1=O)C2=O (stereo partly shown) [Compound 91] | 0 | 10 to 25 |  |
| Cn1c2c(c3ccc(OCCCN4CCC(c5ncc(C(=O)N[C@H]6CC[C@H](Oc7ccc(C#N)c(Cl)c7)CC6)cn5)CC4)cc31)C(=O)N(C1CCC(=O)NC1=O)C2=O (stereo partly shown) [Compound 44] |  |  | DC50 [4]: 25 to 100 nM |
| CCn1c2c(c3ccc(OC4CCN(CC5CCN(c6ccc(C(=O)N[C@H]7C(C)(C)[C@H](Oc8ccc(C#N)c(Cl)c8)C7(C)C)nn6)CC5)CC4)cc31)C(=O)N(C1CCC(=O)NC1=O)C2=O (stereo partly shown) [Compound 212] |  | 25 to 100 |  |
| CCn1c2c(c3ccc(OCCN4CCN(c5ccc(C(=O)N[C@H]6CC[C@H](Oc7ccc(C#N)c(Cl)c7)CC6)nn5)C[C@H]4C)cc31)C(=O)N(C1CCC(=O)NC1=O)C2=O (stereo partly shown) [Compound 73] | 41 | 25 to 100 |  |
| Cn1c2c(c3ccc(OCCN4CCC(c5ccc(C(=O)N[C@H]6CC[C@H](Oc7ccc(C#N)c(Cl)c7)CC6)nn5)CC4)cc31)C(=O)N(C1CCC(=O)NC1=O)C2=O (stereo partly shown) [Compound 208] |  |  | DC50 [4]: 10 to 25 nM |
| CCn1c2c(c3ccc(OCCCN4CCN(c5ccc(C(=O)N[C@H]6CC[C@H](Oc7ccc(C#N)c(Cl)c7)CC6)nn5)CC4)cc31)C(=O)N([C@H]1CCC(=O)NC1=O)C2=O [Compound 63] |  | 10 to 25 |  |
| Cn1c2c(c3ccc(OCCCN4CCN(c5ccc(C(=O)N[C@H]6CC[C@H](Oc7ccc(C#N)c(Cl)c7)CC6)nn5)CC4)cc31)C(=O)N(C1CCC(=O)NC1=O)C2=O (stereo partly shown) [Compound 39] |  |  | remaining activity at 0.1 µM [3]: 16%; DC50 [4]: 10 to 25 nM |
| CC(COc1ccc2c3c(n(C)c2c1)C(=O)N(C1CCC(=O)NC1=O)C3=O)CN1CC=C(c2ccc(C(=O)N[C@H]3CC[C@H](Oc4ccc(C#N)c(Cl)c4)CC3)nn2)CC1 (stereo partly shown) [Compound 200] |  |  | DC50 [4]: 10 to 25 nM |
| CCn1c2c(c3ccc(OCC(=O)N4CCC5(CC4)CN(c4ccc(C(=O)N[C@H]6CC[C@H](N(C)c7ccc(C#N)c(Cl)c7)CC6)nn4)C5)cc31)C(=O)N(C1CCC(=O)NC1=O)C2=O (stereo partly shown) [Compound 129] | 63 |  |  |
| Cn1c2c(c3ccc(OCCOC4CCN(c5ccc(C(=O)N[C@H]6CC[C@H](N(C)c7ccc(C#N)c(Cl)c7)CC6)nn5)CC4)cc31)C(=O)N(C1CCC(=O)NC1=O)C2=O (stereo partly shown) [Compound 169] | 27 | 10 to 25 |  |
| CCn1c2c(c3ccc(OCCCN4CC=C(c5ccc(C(=O)N[C@H]6CC[C@H](Oc7ccc(C#N)c(Cl)c7)CC6)nn5)CC4)cc31)C(=O)N(C1CCC(=O)NC1=O)C2=O (stereo partly shown) [Compound 190] |  | 10 to 25 |  |
| Cn1c2c(c3ccc(OC4CCN(CC5CCN(c6ccc(C(=O)N[C@H]7CC[C@@H](Oc8ccc(C#N)c(Cl)c8)CC7)nn6)CC5)CC4)cc31)C(=O)N(C1CCC(=O)NC1=O)C2=O (stereo partly shown) [Compound 216] |  |  | DC50 [4]: < 10 nM |
| Cn1c2c(c3ccc(OCCN4CCN(c5ccc(C(=O)N[C@H]6CC[C@H](Oc7ccc(C#N)c(Cl)c7)CC6)nn5)CC4)cc31)C(=O)N(C1CCC(=O)NC1=O)C2=O (stereo partly shown) [Compound 3] |  |  | remaining activity at 0.1 µM [3]: 32%; DC50 [4]: 25 to 100 nM |
| Cn1c2c(c3ccc(OCCCN4CCN(c5ccc(C(=O)N[C@H]6C(C)(C)[C@H](Oc7ccc(C#N)c(Cl)c7)C6(C)C)cn5)CC4)cc31)C(=O)N(C1CCC(=O)NC1=O)C2=O (stereo partly shown) [Compound 8] |  |  | remaining activity at 0.1 µM [3]: 22%; DC50 [4]: 10 to 25 nM |
